Measurements as given in patent US10143668B2, “Hydroxy-substituted amino and ammonium derivatives and their medical use” (GRI BIO, INC., priority 2011, dated 2018).
Marks after values point to notes of the source that are not given here.

How the values were obtained:
[1] = test system: local lymph node reaction; test: Local lymph node weight and cell count after TDI challenge; settings: topical, diflorasone 0.1% and 0.5%, 1a 2% or 6%
Description: Directly after sacrifice, the ear draining lymph node (Ln. auricularis) was prepared and excised. Organ weight was determined by means of an analytical balance (Kern, Balingen, Germany). Single cell suspensions were prepared by means of a glass potter (VWR, Darmstadt, Germany) and cells were counted with a hemocytometer (Neubauer, VWR, Germany).
One of the most undesirable side-effects of corticosteroid administration is immunosuppression, which leads to the inability to effectively address parasitic infection, wound healing and tumor growth. In the current study, the local lymph node reaction after TDI challenge (lymph node weight and cell number) was determined to assess the response of immune organs.

[2] = test system: allergic contact dermatitis response in mice; test: Allergic contact dermatitis (TDI) model in mice, mouse ear swelling test; format: in vivo; settings: topical, 2 h before challenge
Description: The anti-inflammatory and anti-allergic effects of compound 1a were assessed in a mouse model of allergic contact dermatitis, a response driven primarily by T helper type 2 (Th2) cells. […] In this model, an allergic dermatitis response is obtained by sensitizing mice to TDI and subsequently challenging them with antigen by topical administration onto the ears. A quantitative assessment of anti-inflammatory and anti-allergic effects of topically or orally administered test compounds is possible by measuring the resulting ear swelling.
Female BALB/c-mice were obtained from Charles River (Sulzfeld, Germany) at age 8 weeks. All animals were housed in groups of eight per cage at 22° C. with a 12 h light/dark-cycle. Water and a standard diet (Altromin, Lage/Lippe, Germany) were available ad libitum. All animals were acclimatized for one week before experimental procedures were commenced.
Experimental procedures for BALB/c mice housing, TDI sensitization and challenge, and measurement of ear thickness were performed as previously described (Baumer et al., J Pharm Pharmacol. 55:1107-1114 (2003)) with the following modifications. For active sensitization, 100 μL of 5% (w/v) TDI was administered to the shaved and stripped abdominal epidermis on day one, and for the next three consecutive days, 50 μL of 5% (w/v) TDI was applied. The allergic reaction was boosted 21 days later by application of 50 μL of 0.5% (w/v) TDI. For the examination of test compound effects, the left ears were used for the TDI challenge (20 μL of 0.5% in acetone) and ear thickness measured 3 h before and 24 h after challenge.
Administration time: to determine optimal time for administration treatment groups were treated orally by gavage with 100 mg/kg of compound 1a (suspended in 0.5% tylose, 10 mL/kg) 1, 4 or 16 h before topical TDI challenge. One group was treated with 100 mg/kg miltefosine orally, 16 h before challenge (based on available data for optimal administration time for miltefosine) and vehicle treated mice received tylose (10 mL/kg) orally, 4 h before challenge.
Comparison with dexamethasone: one group of mice was treated orally with compound 1a at 100 mg/kg suspended in 0.5% tylose, 4 h before topical TDI challenge. Vehicle treated mice received 0.5% tylose orally 4 h before challenge. As a positive control, dexamethasone was administered in saline solution at 1 mg/kg or 3 mg/kg, 2 h and 30 min before challenge and 1 h after challenge. The dose and dosing scheme for dexamethasone was based on previous experience showing a maximal effect in this model.
[…] The solution was applied, 2 h before topical TDI challenge by administration of 10 μl onto each of the inner and outer surfaces of the left ears. A vehicle group (n=5) was treated with propyleneglycol. As a positive control, diflorasone diacetate was administered at 0.01% (low dose) and 0.05% (high dose) in 20 μl acetone, 2 h before challenge. A basal control group was left untreated.
Mean and standard error of the mean (SEM) were calculated from individual ear edema values. Statistical evaluation was a one-way analysis of variance (ANOVA) (if the test for normal distribution was passed) or the Kruskal-Wallis one-way ANOVA on Ranks (if the normal distribution test failed). Both were followed by a post-hoc test (Dunnett's method or Dunn's test, respectively). A p<0.05 was considered to be significant.

Q: Which results are given for CC(=O)OCC(=O)[C@@]1(OC(C)=O)[C@@H](C)C[C@H]2[C@@H]3C[C@H](F)C4=CC(=O)C=C[C@]4(C)[C@@]3(F)[C@@H](O)C[C@@]21C [Diflorasone, diflorasone diacetate, reference compound]?
A: local lymph node reaction (lymph node weight and cell number) [1]: highly significant reduction; Inhibition of mouse ear swelling ([2]; 0.1%): 101.1*** %; Inhibition of mouse ear swelling ([2]; 0.5%): 110.8*** %
